For 20 molecules, Kd, IC50 and inhibition results are on record in patent US9309222B2, “Phenyl linked quinolinyl modulators of RORγt” (Janssen Pharmaceutica NV, priority 2012, dated 2016).

In test [1] the target is T1, human RORγt ligand binding domain (RORγt LBD) (Homo sapiens, UniProt P51449).
T1 construct: His-tag (N); TurboTEV protease cleavage site (ENLYFQG) (N); made in house; host or cells: E. coli (pHIS1, modified pET vector)
T1 sequence (P51449 with tags, fused parts or gaps): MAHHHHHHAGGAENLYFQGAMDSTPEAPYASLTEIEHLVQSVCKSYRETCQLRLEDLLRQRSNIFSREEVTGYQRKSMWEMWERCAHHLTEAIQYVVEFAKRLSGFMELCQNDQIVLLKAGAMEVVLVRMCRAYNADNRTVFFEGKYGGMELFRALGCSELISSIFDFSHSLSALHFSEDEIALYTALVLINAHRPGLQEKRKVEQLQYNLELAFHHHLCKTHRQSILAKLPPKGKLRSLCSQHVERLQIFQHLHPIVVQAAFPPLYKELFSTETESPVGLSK
Kind of test: RORγt ThermoFluor assay (thermal shift, ligand binding affinity). Conditions: estimated from concentration response of thermal shift. The method in brief: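 Thermal shift of 0.065 mg/mL RORγt with 60 μM 1,8-ANS in 100 mM Hepes pH 7.0, 10 mM NaCl, 2.5 mM GSH, 0.002% Tween-20. Compounds in 1:2 series from 10 mM DMSO stock. Dye fluorescence (500 nm emission) tracked versus temperature; ΔTm used to derive KD.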

The target of test [2] is T2, human RORγt LBD (Homo sapiens, UniProt P51449).
T2 construct: expressed in transfected cells
T2 sequence (P51449 258-518): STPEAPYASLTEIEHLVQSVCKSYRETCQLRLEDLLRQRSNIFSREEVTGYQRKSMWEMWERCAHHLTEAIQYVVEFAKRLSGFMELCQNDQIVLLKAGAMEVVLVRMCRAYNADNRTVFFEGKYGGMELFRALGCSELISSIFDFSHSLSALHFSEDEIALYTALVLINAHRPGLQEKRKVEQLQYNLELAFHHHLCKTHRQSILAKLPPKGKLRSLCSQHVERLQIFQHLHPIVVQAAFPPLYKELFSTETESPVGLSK
Briefly: RORγt reporter assay (GAL4-RORγt LBD luciferase in HEK293T cells). The test is classed as cell-based. The following applies: for IC50: HEK293T cells, 24 hours compound treatment; for inhibition at 6 µM: HEK-293T, read-out: RORγt reporter Assay, % inhibition @ 6 μM, HEK293T cells, 6 μM compound. The method in brief:
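Read-out is the firefly-to-renilla luciferase ratio versus compound concentration, after 24 h compound exposure of cells in phenol-red-free DMEM/5% lipid-reduced FCS. Cells were HEK293T bulk-transfected with a GAL4-responsive firefly reporter (pGL4.31) and GAL4 DBD–wild-type human RORγt LBD fusion (pBIND, renilla as transfection/viability control).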
(Reporter assays use an easily measured gene product as a stand-in for the process of interest.)

Test [3] has as its system IL-17 production by CD4 T cells. Briefly: Human Th17 assay (IL-17 production by CD4 T cells under Th17 differentiation conditions). The test is classed as cell-based. Conditions: Homo sapiens, CD4+ T, 72 h, IL-17 in supernatant after 3 days. The method in brief:
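Primary CD4+ T cells from healthy-donor PBMC, preincubated 1 h with titrated compound (0.2% DMSO), then activated with anti-CD3/CD28 beads plus anti-IL4, anti-IFNγ, IL1β, IL23, IL6, TGFβ and IL2.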

Several values for one entry are separate records, joined by “and”; a condition that tells them apart may be missing. Equal entries are not always repeated. Structures can show the parent of a compound that is named as a salt.

In general, Kd refers to the free concentration of one partner at which half of the binding sites on the other are occupied at equilibrium, for simple one-to-one binding. As usually defined, the IC50 is the midpoint of a concentration-inhibition curve. As usually defined, the inhibition is the drop in the measured response relative to a control, in per cent. Consider `CN(C)c1nc2ccc(C(O)(c3cccnc3)c3cccnc3)cc2c(Cl)c1-c1ccccc1` [Example 40, [4-Chloro-2-(dimethylamino)-3-phenylquinolin-6-yl](dipyridin-3-yl)methanol•TFA], for which the Kd in test [1] was 18 nM. Moreover, the IC50 in test [2] was 47 nM and < 50 nM; in test [3] it was 56 nM. Moreover, the inhibition at 6 µM in test [2] is 100%.

For `CN(C)c1nc2ccc(C(O)(c3cccnc3)c3cccc(Cl)c3)cc2c(Cl)c1-c1ccccc1` (centres unmarked) [Example 41, [4-Chloro-2-(dimethylamino)-3-phenylquinolin-6-yl](3-chlorophenyl)pyridin-3-ylmethanol•TFA], in test [1], the dissociation constant Kd is 23 nM. Also, the IC50 in test [2] was 110 nM and ~100 nM; in test [3] it was 200 nM. The inhibition at 6 µM in test [2] worked out at 98%.

`CN(C)c1nc2ccc(C(O)(c3cccnc3)c3ccccc3Cl)cc2c(Cl)c1-c1ccccc1` (centres unmarked) [Example 44, [4-Chloro-2-(dimethylamino)-3-phenylquinolin-6-yl](2-chlorophenyl)pyridin-3-ylmethanol•TFA]: the Kd in test [1] was 330 nM. The half-maximal inhibitory concentration (IC50) in test [2] was found to be 170 nM; in test [3] it was 550 nM. For the same molecule, in test [2], the inhibition at 6 µM was 97%.

With `CCN(C)c1nc2ccc(C(O)(c3ccncc3)c3cncn3C)cc2c(Cl)c1-c1ccccc1` (centres unmarked) [Example 50, {4-Chloro-2-[ethyl(methyl)amino]-3-phenylquinolin-6-yl}(1-methyl-1H-imidazol-5-yl)pyridin-4-ylmethanol•TFA], in test [1], the Kd is 5 nM. In addition, the IC50 in test [2] was 7 nM and ~9 nM and < 50 nM; in test [3], 36 nM. Further, the inhibition at 6 µM in test [2] was found to be 105%.

For `COc1cccc(C(O)(c2cccnc2)c2ccc3nc(Cl)c(-c4ccccc4)c(Cl)c3c2)c1` (centres unmarked) [Example 54, (2,4-Dichloro-3-phenylquinolin-6-yl)(3-methoxyphenyl)pyridin-3-ylmethanol], in test [1], the Kd is 39 nM. Moreover, in test [2], the midpoint of inhibition, the IC50, lay at 150 nM and the inhibition at 6 µM was 97%. Also, in test [3], the IC50 amounted to 360 nM.

For the molecule `OC(c1ccc(Cl)nc1)(c1cccc(Cl)c1)c1ccc2nc(Cl)c(-c3ccccc3)c(Cl)c2c1` (centres unmarked) [Example 56, (3-Chlorophenyl)(6-chloropyridin-3-yl)(2,4-dichloro-3-phenylquinolin-6-yl)methanol], in test [1], the dissociation constant Kd is 40 nM. Also, in test [2], it took 170 nM to reach half-maximal inhibition (IC50) and the inhibition at 6 µM was found to be 91%. In test [3], this molecule yielded an IC50 of 240 nM.

Consider `OC(c1ccc(Cl)nc1)(c1cccc(F)c1)c1ccc2nc(Cl)c(-c3ccccc3)c(Cl)c2c1` (centres unmarked) [Example 57, (6-Chloropyridin-3-yl)(2,4-dichloro-3-phenylquinolin-6-yl)(3-fluorophenyl)methanol], for which, in test [1], the Kd is 55 nM. For the same molecule, in test [2], the IC50 is 160 nM and the inhibition at 6 µM is 90%. Further, the IC50 in test [3] was determined as 280 nM.

With `COc1ccc(C(O)(c2cccnc2)c2ccc3nc(N(C)C)c(-c4ccccc4)c(Cl)c3c2)cc1` (centres unmarked) [Example 62, [4-Chloro-2-(dimethylamino)-3-phenylquinolin-6-yl](4-methoxyphenyl)pyridin-3-ylmethanol•TFA], in test [1], the Kd was 420 nM. In addition, the IC50 worked out at 250 nM in test [2] and 700 nM in test [3]. For the same molecule, the inhibition at 6 µM in test [2] is 98%.

Take `COCCN(C)c1nc2ccc(C(O)(c3ccncc3)c3cncn3C)cc2c(Cl)c1-c1ccccc1` (centres unmarked) [Example 63, {4-Chloro-2-[(2-methoxyethyl)(methyl)amino]-3-phenylquinolin-6-yl}(1-methyl-1H-imidazol-5-yl)pyridin-4-ylmethanol•TFA]: the Kd in test [1] was 15 nM. In test [2], the IC50 was 8.6 nM and the inhibition at 6 µM is 106%. The same molecule showed an IC50 in test [3] of 63 nM.

For `COc1cccc(C(O)(c2ccc(Cl)nc2)c2ccc3nc(Cl)c(-c4ccccc4)c(Cl)c3c2)c1` (centres unmarked) [Example 65, (6-Chloropyridin-3-yl)(2,4-dichloro-3-phenylquinolin-6-yl)(3-methoxyphenyl)methanol], the Kd in test [1] was 200 nM. In test [2], the IC50 stood at 160 nM and the inhibition at 6 µM came to 103%. The molecule also registered an IC50 in test [3] of 190 nM.

`Cn1cncc1C(O)(c1ccnc(Cl)c1)c1ccc2nc(Cl)c(-c3ccccc3)c(Cl)c2c1` (centres unmarked) [Example 66, (2-Chloropyridin-4-yl)(2,4-dichloro-3-phenylquinolin-6-yl)(1-methyl-1H-imidazol-5-yl)methanol•TFA]: the Kd in test [1] is 1.7 nM. Besides, in test [2], the IC50 was found to be 10 nM and the inhibition at 6 µM worked out at 105%. 59 nM corresponded to half-maximal inhibition in test [3] (IC50).

On to `COc1cc(C(O)(c2ccc3nc(Cl)c(-c4ccccc4)c(Cl)c3c2)c2cncn2C)ccn1` (centres unmarked) [Example 68, (2,4-Dichloro-3-phenylquinolin-6-yl)(2-methoxypyridin-4-yl)(1-methyl-1H-imidazol-5-yl)methanol•TFA], for which, in test [1], the Kd was 3.9 nM. For the same molecule, in test [2], half-maximal inhibition (IC50) was put at 5.8 nM and the inhibition at 6 µM was found to be 103%. Besides, the midpoint of inhibition in test [3], the IC50, lay at 48 nM.

For `COc1cccc(C(O)(c2ccc(C)nc2)c2ccc3nc(Cl)c(-c4ccccc4)c(Cl)c3c2)c1` (centres unmarked) [Example 69, (2,4-Dichloro-3-phenylquinolin-6-yl)(3-methoxyphenyl)(6-methylpyridin-3-yl)methanol•TFA], in test [1], the Kd is 300 nM. In test [2], the IC50 was 150 nM and the inhibition at 6 µM amounted to 99%. In addition, 610 nM corresponded to half-maximal inhibition in test [3] (IC50).

Take `Cc1ccc(C(O)(c2cccc(Cl)c2)c2ccc3nc(Cl)c(-c4ccccc4)c(Cl)c3c2)cn1` (centres unmarked) [Example 70, (3-Chlorophenyl)(2,4-dichloro-3-phenylquinolin-6-yl)(6-methylpyridin-3-yl)methanol•TFA]: the Kd in test [1] is 770 nM. Further, in test [2], 47 nM corresponded to half-maximal inhibition (IC50) and the inhibition at 6 µM was 95%. Further, inhibition in test [3] was half-maximal at 630 nM (IC50).

Regarding `Cc1ccc(C(O)(c2cccc(F)c2)c2ccc3nc(Cl)c(-c4ccccc4)c(Cl)c3c2)cn1` (centres unmarked) [Example 71, (2,4-Dichloro-3-phenylquinolin-6-yl)(3-fluorophenyl)(6-methylpyridin-3-yl)methanol•TFA], the Kd in test [1] is 310 nM. Also, in test [2], half-maximal inhibition (IC50) required 82 nM and the inhibition at 6 µM was 94%. In test [3], inhibition was half-maximal at 690 nM (IC50).

For the molecule `Cn1cncc1C(O)(c1ccncc1)c1ccc2nc(Cl)c(-c3ccccc3)c(N3CCC(O)CC3)c2c1` (centres unmarked) [Example 73, 1-{2-Chloro-6-[hydroxy(1-methyl-1H-imidazol-5-yl)pyridin-4-ylmethyl]-3-phenylquinolin-4-yl}piperidin-4-ol•TFA], the Kd in test [1] was 18 nM. In test [2], the IC50 was determined as 360 nM and the inhibition at 6 µM is 88%. This molecule also registered an IC50 in test [3] of 1200 nM.

As to `CCCCN(C)c1nc2ccc(C(O)(c3ccncc3)c3cncn3C)cc2c(Cl)c1-c1ccccc1` (centres unmarked) [Example 76, {2-[Butyl(methyl)amino]-4-chloro-3-phenylquinolin-6-yl}(1-methyl-1H-imidazol-5-yl)pyridin-4-ylmethanol•TFA], the Kd in test [1] was 2.3 nM. Also, the IC50 came to 4.9 nM in test [2] and 40 nM in test [3]. In addition, the inhibition at 6 µM in test [2] was 100%.

For `COc1nc2ccc(C(O)(c3cccnc3)c3cccc(Cl)c3)cc2c(Cl)c1-c1ccccc1` (centres unmarked) [Example 80, (4-Chloro-2-methoxy-3-phenylquinolin-6-yl)(3-chlorophenyl)pyridin-3-ylmethanol•TFA], the Kd in test [1] is 55 nM. For the same molecule, in test [2], the IC50 amounted to 25 nM and the inhibition at 6 µM was found to be 89%. The same molecule had an IC50 in test [3] of 120 nM.

In the case of `CC(C)Oc1nc2ccc(C(O)(c3cccnc3)c3cccc(Cl)c3)cc2c(Cl)c1-c1ccccc1` (centres unmarked) [Example 84, [4-Chloro-2-(1-methylethoxy)-3-phenylquinolin-6-yl](3-chlorophenyl)pyridin-3-ylmethanol•TFA], the Kd in test [1] was 1400 nM. Besides, in test [2], the IC50 stood at 890 nM and the inhibition at 6 µM was 73%. The molecule also had an IC50 in test [3] of 1300 nM.

With `Cc1cc(C(O)(c2ccc3nc(Cl)c(-c4ccccc4)c(Cl)c3c2)c2cncn2C)cc(Cl)n1` (centres unmarked) [Example 87, (2-Chloro-6-methylpyridin-4-yl)(2,4-dichloro-3-phenylquinolin-6-yl)(1-methyl-1H-imidazol-5-yl)methanol•TFA], the Kd in test [1] is 0.11 nM. For the same molecule, the IC50 is 5.3 nM in test [2] and roughly 2 nM in test [3]. The inhibition at 6 µM in test [2] worked out at 105%.
